The nature of this series: Human HepG2 cell viability assay in 384 well format. The class given is toxicity, cell-based. Set-up: dose 125 nL, time 70.5 hour; concentration not given beside the values. As to conditions: HepG2 cells, read-out: Inhibition.
As to `CC(CN1CCCCCC1)NCc1nncn1C1CCCCC1` (stereo not drawn), the cytotoxicity at 70.5 h is -6.55%.

On to `CC(C)Nc1ccc2nc(C3CCN(C(C)C)CC3)nn2c1`, for which the cytotoxicity at 70.5 h was -2.64%.

With `CC(C)=CCC1(CO)CCCN(Cc2nccs2)C1` (stereo not drawn), the cytotoxicity at 70.5 h was -9.67%.

With `O=C(NCc1cc2n(n1)CCCNC2)C1(c2ccc(Cl)cc2)CCC1`, the cytotoxicity at 70.5 h was 1.64%.

With `NC(=O)CC1CCN(C(=O)NCc2ccccc2-n2cccn2)CC1`, the cytotoxicity at 70.5 h was -1.19%.

On to `CN(C(=O)C1(C#N)CCCCC1)c1nccs1`, for which the cytotoxicity at 70.5 h was -0.486%.

Consider `CC[C@H]1CN(C(=O)C2CC2)CC[C@H]1CC(=O)NCCN1CCOCC1`, for which the cytotoxicity at 70.5 h was -0.373%.

Consider `CC(C)(C)C(=O)NCCc1cc2nc(-c3ccncc3)ccn2n1`, for which the cytotoxicity at 70.5 h was 1.86%.

Consider `CSCCC(NC(=O)c1ccc2ccccc2n1)C(=O)NC(C)C` (stereo not drawn), for which the cytotoxicity at 70.5 h was -3.96%.

Consider `Cn1cc(C(=O)NCc2cn3c(n2)CN(Cc2ccccn2)CC3)cn1`, for which the cytotoxicity at 70.5 h was -1.02%.

`CCc1cc(C(=O)N2CCC(c3cc4ncccc4cn3)CC2)no1`: the cytotoxicity at 70.5 h came to 18.3%.

For `CC(C)CC(=O)N1CC[C@@H]2[C@H](CC1)N(Cc1cccnc1)CCS2(=O)=O`, the cytotoxicity at 70.5 h is 3.17%.

As for `CC(C)NC(=O)c1ccc2c(c1)C(c1nc[nH]n1)CN2S(C)(=O)=O` (stereo not drawn), the cytotoxicity at 70.5 h is -14.8%.

As to `COCCNC(=O)NCC(C)c1ccccc1OC` (stereo not drawn), the cytotoxicity at 70.5 h was -8.45%.

Turning to `O=C(O)CSc1nnc(-c2cn[nH]c2)n1-c1ccccc1C(F)(F)F`, the cytotoxicity at 70.5 h was -3.6%.

As for `CC(SCCC(=O)NC(N)=O)c1cccc(F)c1` (stereo not drawn), the cytotoxicity at 70.5 h was determined as 15.9%.

Regarding `O=C(NC1CCC1)[C@H]1C[C@@H]2CN(C(=O)Nc3ccc(F)cc3)C[C@H]1O2`, the cytotoxicity at 70.5 h was -5.31%.

With `COc1cccc(-n2nnc(C(=O)N3CCCCCC3)c2C)c1`, the cytotoxicity at 70.5 h is -12.9%.

With `O=C(c1c(F)cc(Br)cc1F)N1CCc2cnccc21`, the cytotoxicity at 70.5 h was -5.62%.

As to `Cn1c(C(=O)N2CCC(C(N)=O)C2)c(Cl)c2ccccc21` (stereo not drawn), the cytotoxicity at 70.5 h was -5.34%.

For the molecule `Cc1ccc(-c2ccnc(N3CCC4(CC3)CNC(=O)C4)n2)c(C)n1`, the cytotoxicity at 70.5 h turned out to be 15.1%.

As for `O=C(COC(=O)Cc1cccs1)NCc1cccc(NC(=O)C2CC2)c1`, the cytotoxicity at 70.5 h is -10.5%.

On to `COc1ccc(Cl)cc1-n1nc(C2CCCC2)nc1Cn1cnnn1`, for which the cytotoxicity at 70.5 h stood at 5.4%.

As for `COCCN1CCC2(CC1)CN(C(=O)c1ccco1)CCO2`, the cytotoxicity at 70.5 h amounted to 12.3%.

`Cc1ccsc1CNc1cc(N2CCCC2CO)ncn1` (stereo not drawn): the cytotoxicity at 70.5 h is -4.35%.

On to `CC(C)(C)C(=O)NCCC(=O)NCCc1ccn(-c2ccccc2)n1`, for which the cytotoxicity at 70.5 h is -4.33%.

For `COCC(=O)N1CCC2(CC1)NC(=O)[C@H]1CN(C(=O)N(C)C)C[C@H]12`, the cytotoxicity at 70.5 h is -7.64%.

Take `Cc1ccc2c(c1)CCC2NC(=O)N1CCC(C(N)=O)CC1` (stereo not drawn): the cytotoxicity at 70.5 h was -6.61%.

With `O=C(c1cnccn1)N1CCn2cnc(COCC3CC3)c2C1`, the cytotoxicity at 70.5 h turned out to be 14.8%.

`C[S+]([O-])c1nncn1CC(=O)c1ccc(Cl)c(Cl)c1` (stereo not drawn): the cytotoxicity at 70.5 h is -3.69%.

In the case of `Cc1ccc(-n2c(COC(C)C)n[nH]c2=O)cc1`, the cytotoxicity at 70.5 h was -2.37%.

As to `O=C(NCC1CCOCC1)[C@@H]1C[C@@H]2[C@@H](CCN2Cc2ccoc2)O1`, the cytotoxicity at 70.5 h came to 0.123%.

On to `CC(C(=O)N1CCc2ccccc2C1)n1cc(Br)cn1` (stereo not drawn), for which the cytotoxicity at 70.5 h is -13.3%.

Turning to `CCOCC1CN(C(=O)c2ccoc2)Cc2nn(C)cc21` (stereo not drawn), the cytotoxicity at 70.5 h is -6.29%.

Take `O=C(CCNC(=O)c1sccc1-c1ccccc1)NC1CCS(=O)(=O)C1` (stereo not drawn): the cytotoxicity at 70.5 h is -9.28%.

As for `CS(=O)(=O)NCc1noc2c1CN(C(=O)c1ccsc1)CC2`, the cytotoxicity at 70.5 h was -7.43%.

In the case of `Cc1cccc(COC[C@@]23CCC[C@@H]2CN(C(=O)Cc2ccco2)C3)n1`, the cytotoxicity at 70.5 h was -8.53%.

For the molecule `Cn1nc(C(=O)NCc2ccc(OC3CCCCC3)nc2)ccc1=O`, the cytotoxicity at 70.5 h was 21.9%.

As for `Cc1ccc(-c2cnc3n2CCN(C)C32CCN(CC3CC3)CC2)cc1`, the cytotoxicity at 70.5 h was -1.92%.

Take `CCNC(=O)C1CCCN(c2ccc3ccc(F)cc3n2)C1` (stereo not drawn): the cytotoxicity at 70.5 h stood at 0.815%.

In the case of `CCNC(=O)Cc1c(C)nc2c(c1C)c(=O)[nH]n2C`, the cytotoxicity at 70.5 h is -5.26%.

With `CCn1nc(C)c2nc(C(C)C)nc(NCc3ccccn3)c21`, the cytotoxicity at 70.5 h was 0.25%.

On to `CC(=O)Nc1cccc(C(C)NCC2CCS(=O)(=O)CC2)c1` (stereo not drawn), for which the cytotoxicity at 70.5 h is -3.86%.

As to `COC1CCN(CCNC(=O)NCC(C)c2cccc(C)c2)CC1` (stereo not drawn), the cytotoxicity at 70.5 h was 9.93%.

`COCCn1c(C(=O)NC(C(N)=O)C(C)C)cc2ccccc21` (stereo not drawn): the cytotoxicity at 70.5 h was -6.02%.

Take `CC(C)S(=O)(=O)N(C)C(=O)CCc1ccsc1`: the cytotoxicity at 70.5 h was -12%.

On to `CCn1ccnc1CN1CCCC(CO)(CCCc2ccccc2)C1` (stereo not drawn), for which the cytotoxicity at 70.5 h was -0.875%.

For `CSC(C)C(=O)NS(=O)(=O)CCc1ccccc1` (stereo not drawn), the cytotoxicity at 70.5 h was -2.58%.

As for `CCN1CCN(c2ccc(F)cc2C(C)NCc2cscn2)CC1` (stereo not drawn), the cytotoxicity at 70.5 h is -3.66%.

In the case of `N#CC1(C(=O)N2CCOC(c3ccc(Cl)cc3)C2)CCCC1` (stereo not drawn), the cytotoxicity at 70.5 h is -15.9%.

Consider `Cc1cc(C(=O)NCc2cccnc2OC(C)C)no1`, for which the cytotoxicity at 70.5 h was -31.2%.

For `Cc1nn(C)c(Cl)c1C1CCCN1C(=O)c1ccc(C(N)=O)cn1` (stereo not drawn), the cytotoxicity at 70.5 h is 54.9%.

As to `Cn1c(C2CC2)nc2c1CCN(CC(=O)NC1CCCCNC1=O)C2` (stereo not drawn), the cytotoxicity at 70.5 h was -7.85%.

Consider `Cc1ccc(CNC(=O)Nc2cc(C(F)(F)F)c[nH]c2=O)cn1`, for which the cytotoxicity at 70.5 h is -0.26%.

As to `Cc1ccc(CN2CC[C@H]3OCC[C@@H](C(=O)NCC4CC4)[C@@H]3C2)s1`, the cytotoxicity at 70.5 h was -6.5%.

Consider `Cc1oc(C(=O)O)cc1S(=O)(=O)Nc1ccc(Cl)cc1F`, for which the cytotoxicity at 70.5 h was -0.71%.

On to `CS(=O)(=O)N1CCC(O)(Cn2c(C3CC3)nc3ccccc3c2=O)CC1`, for which the cytotoxicity at 70.5 h is -1.88%.

Consider `Cn1cnc2c1C(COCC1CCOCC1)CN(c1ncccn1)C2` (stereo not drawn), for which the cytotoxicity at 70.5 h is -11.3%.

On to `Cc1cc(C(=O)N2CCCC(N3CCCCCC3)C2)nn1C(C)(C)C` (stereo not drawn), for which the cytotoxicity at 70.5 h turned out to be 16.8%.

As to `NC(=O)C1CCN(C(=O)CCn2ccc3ccc(Br)cc32)CC1`, the cytotoxicity at 70.5 h was -33.3%.

As for `Cc1cc(C)c(C(=O)NCCNc2ncnc3ccccc23)c(=O)[nH]1`, the cytotoxicity at 70.5 h is -2.04%.

For `COCCN(Cc1ccccn1)C(=O)C1CCCCCN1C` (stereo not drawn), the cytotoxicity at 70.5 h is -9.93%.

`O=C(c1ccco1)N1CCOC2(COCCN(c3ncccn3)C2)C1` (stereo not drawn): the cytotoxicity at 70.5 h is -14.8%.

As to `O=S(=O)(C1CC1)N1CCC2(CC1)COC(COc1cccnc1)C2` (stereo not drawn), the cytotoxicity at 70.5 h was -10.2%.

Take `CCOc1ncccc1-c1cc2c(cc1C(N)=O)OCO2`: the cytotoxicity at 70.5 h is -3.42%.

For the molecule `O=C(c1cnc2ccccc2c1)N1CCC2(CCN2c2ncccn2)C1` (stereo not drawn), the cytotoxicity at 70.5 h was 2.76%.

In the case of `O=C1CC(c2cccc(Cl)c2)c2snc(C(=O)O)c2N1` (stereo not drawn), the cytotoxicity at 70.5 h is -5.92%.

`NS(=O)(=O)c1cnc(NCC2(c3cccc(F)c3)CCOCC2)s1`: the cytotoxicity at 70.5 h was -0.912%.

As for `CCN(CC1CCCO1)C(=O)Nc1cccc(Cl)c1OC` (stereo not drawn), the cytotoxicity at 70.5 h was determined as 24.1%.

As to `Cc1ccc(NC2CCN(C(=O)Cc3csc(C)n3)CC2)nn1`, the cytotoxicity at 70.5 h was -9.75%.

Turning to `c1ccc(-c2nc(CNC3CCc4ncnn4C3)no2)cc1` (stereo not drawn), the cytotoxicity at 70.5 h was -3.91%.

For `CNc1ncc(CN(C)Cc2cc(O)c3cccc(Cl)c3n2)cn1`, the cytotoxicity at 70.5 h was -15.2%.

Take `CC(CCc1ccccc1F)C(=O)NS(=O)(=O)N(C)C(C)C` (stereo not drawn): the cytotoxicity at 70.5 h was -12.3%.

On to `COC(=O)c1ccc(N(C(=O)c2cscn2)C(C)C)c(C)c1`, for which the cytotoxicity at 70.5 h was -4.28%.

Consider `O=C1CO[C@H]2CN(Cc3cccc4[nH]ccc34)C[C@@H]2N1C1CCOCC1`, for which the cytotoxicity at 70.5 h is 5.48%.

As to `CC(C)(C)c1cnc(CN2CCCS(=O)(=O)CC2)o1`, the cytotoxicity at 70.5 h was -1.34%.

As for `N#Cc1ccc(OC2CCN(C(=O)Cc3cccs3)CC2)nc1`, the cytotoxicity at 70.5 h is -0.57%.

For the molecule `NC(=O)CN1C(=O)CO[C@H]2CN(Cc3ccc(C(F)(F)F)cc3)C[C@H]21`, the cytotoxicity at 70.5 h was -1.74%.

For `O=C(CCN1CCOC(C(F)(F)F)C1)NCc1cccc(Cl)c1` (stereo not drawn), the cytotoxicity at 70.5 h is -5.6%.

As to `O=C(NCCNC(=O)C1CC1)c1cnc(-c2ccccc2)nc1`, the cytotoxicity at 70.5 h is 16.6%.

With `Cc1c[nH]nc1C1CCCN1Cc1ccncc1` (stereo not drawn), the cytotoxicity at 70.5 h is -4.73%.

With `Cc1ccc(-c2nc(CCNC(=O)C3CC(=O)N(C)C3)cs2)cc1` (stereo not drawn), the cytotoxicity at 70.5 h is -98.5%.

Regarding `Cc1cc(C(F)(F)F)cc(N2C[C@@H](CN3CCOCC3)[C@@H](CO)C2)n1`, the cytotoxicity at 70.5 h was -16.2%.

For `CN(Cc1nnc2n1CCC2)C(=O)c1ccc(=O)n(C)n1`, the cytotoxicity at 70.5 h is 4.72%.

For `COc1cccc(S(=O)(=O)NC2CNC(=O)C2)c1` (stereo not drawn), the cytotoxicity at 70.5 h was 1.68%.

In the case of `Cn1ccc(NC(=O)NC2CCCN(c3ccccc3Cl)C2=O)n1` (stereo not drawn), the cytotoxicity at 70.5 h was -0.238%.

Turning to `CC(C)c1cc2c(O)nc(CSCC(=O)O)nc2s1`, the cytotoxicity at 70.5 h was -14.7%.

Consider `COc1ccc(OC)c(CCNC(=O)CCC2CCCO2)c1` (stereo not drawn), for which the cytotoxicity at 70.5 h is -10%.

As for `OC(CNc1nc(C2CCCC2)nc2c1CCNCC2)C(F)(F)F` (stereo not drawn), the cytotoxicity at 70.5 h is -7.87%.

Take `C=C/C=c1\c(=C/C)oc2c(NCc3ccccc3)ncnc12`: the cytotoxicity at 70.5 h amounted to 10.6%.

As to `CCn1cnnc1CNC(=O)c1cc(Cl)ccc1F`, the cytotoxicity at 70.5 h is -11.5%.

On to `O=C(c1cc(F)cc2[nH]cnc12)N1CCCC1Cn1cccn1` (stereo not drawn), for which the cytotoxicity at 70.5 h is -8.91%.

Regarding `CC(C)n1nc2c(cc1=O)CN(c1ncnc3ccccc13)CC2`, the cytotoxicity at 70.5 h is -1.82%.

With `CCCc1c(C(=O)N2CCN(c3ncccn3)CC2)cnn1C`, the cytotoxicity at 70.5 h is -10.6%.

Turning to `COCCN(Cc1ccc(F)cc1Cl)C(=O)c1cnn(C)c1C`, the cytotoxicity at 70.5 h is 7.76%.

For `CCOc1ncccc1C(=O)Nc1c(C)cnn1CC1CC1`, the cytotoxicity at 70.5 h was -9.45%.

As for `Cc1cc(NCc2nnc3n2CCC3)n2nc(C)c(C)c2n1`, the cytotoxicity at 70.5 h was -12.3%.

With `O=C1CCC(C(=O)N(Cc2ccsc2)CC2CCCO2)=NN1` (stereo not drawn), the cytotoxicity at 70.5 h is -0.382%.

The record behind these values is ChEMBL document CHEMBL3507680, “University of Dundee, Gates Library screen for HepG2 cell viability”.
